Entries after “also recorded” stand apart in the source; their conditions may differ.
What was measured:
[1] = target: 5-HT2B (Homo sapiens, UniProt P41595); assay: Calcium flux agonist assay, 293T cells; assay type: cell-based; set-up: expressed in transfected cells; host or cells: Human Embryonic Kidney (293T) cells, transient; conditions: for Emax: HEK-293T, normalized to maximum 5-HT response; for 5-HT2B receptor activation: in words
[2] = test system: male C57BL/6J mice; assay: Mouse head-twitch response (HTR) assay, magnetometer; assay type: in vivo; conditions: i.p.; for HTR (head twitch response), in words: doses up to 30 mpk
[3] = target: T1, M3 (h) (Homo sapiens, UniProt P20309); assay: Radioligand binding M3 (h) (antagonist radioligand), [^3H]4-DAMP, CHO cells
T1 construct: expressed in transfected cells; host or cells: CHO cells
Description: (§1) Methods—Binding Assays: In vitro binding assays were performed using human recombinant receptors expressed in mammalian cell lines. Receptors were expressed in either HEK-293 or CHO cells depending on the target, and assay conditions (radioligand, concentration, nonspecific competitor, temperature, and incubation time) were optimized for each receptor. All assays were conducted in triplicate, and specific binding was quantified by scintillation counting as the detection method for each listed assay.
(§2) Specific binding was expressed as a percentage of control-specific binding, and percent inhibition was calculated using the formula in Ex. 8 above. Half-maximal inhibitory concentrations (IC50) were determined by non-linear regression analysis of the inhibition curves using the Hill equation (see Ex. 8). Inhibition constants (Ki) were calculated using the Cheng-Prusoff equation (see Ex. 8). KD values used in these calculations had been previously established for each receptor under the assay conditions (see Table 6). Data analysis was performed using software developed at Cerep and validated against SigmaPlot 4.0 for Windows.

[4] = target: T2, ETA (h) (Homo sapiens, UniProt P25101); assay: Radioligand binding ETA (h) (agonist radioligand), [^125I]endothelin-1, CHO cells
T2 construct: expressed in transfected cells; host or cells: CHO cells
T2 sequence (P25101 21-427): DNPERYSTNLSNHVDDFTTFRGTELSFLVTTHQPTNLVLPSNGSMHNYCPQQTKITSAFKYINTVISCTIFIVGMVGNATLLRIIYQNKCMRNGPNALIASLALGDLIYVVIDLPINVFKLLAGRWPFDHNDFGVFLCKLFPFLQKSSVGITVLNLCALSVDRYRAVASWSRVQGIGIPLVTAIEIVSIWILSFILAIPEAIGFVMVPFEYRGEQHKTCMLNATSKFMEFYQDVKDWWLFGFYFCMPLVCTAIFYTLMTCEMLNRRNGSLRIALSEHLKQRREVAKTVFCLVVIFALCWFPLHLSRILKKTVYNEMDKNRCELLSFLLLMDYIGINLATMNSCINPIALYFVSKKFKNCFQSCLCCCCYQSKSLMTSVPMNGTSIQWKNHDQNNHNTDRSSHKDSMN
Description: as §1, §2

[5] = target: T3, GR (h) (Homo sapiens, UniProt P04150); assay: Radioligand binding GR (h) (agonist radioligand), [^3H]dexamethasone, IM-9 cells
T3 construct: human endog; endogenous in cells; host or cells: IM-9 cells
T3 sequence (P04150 1-777): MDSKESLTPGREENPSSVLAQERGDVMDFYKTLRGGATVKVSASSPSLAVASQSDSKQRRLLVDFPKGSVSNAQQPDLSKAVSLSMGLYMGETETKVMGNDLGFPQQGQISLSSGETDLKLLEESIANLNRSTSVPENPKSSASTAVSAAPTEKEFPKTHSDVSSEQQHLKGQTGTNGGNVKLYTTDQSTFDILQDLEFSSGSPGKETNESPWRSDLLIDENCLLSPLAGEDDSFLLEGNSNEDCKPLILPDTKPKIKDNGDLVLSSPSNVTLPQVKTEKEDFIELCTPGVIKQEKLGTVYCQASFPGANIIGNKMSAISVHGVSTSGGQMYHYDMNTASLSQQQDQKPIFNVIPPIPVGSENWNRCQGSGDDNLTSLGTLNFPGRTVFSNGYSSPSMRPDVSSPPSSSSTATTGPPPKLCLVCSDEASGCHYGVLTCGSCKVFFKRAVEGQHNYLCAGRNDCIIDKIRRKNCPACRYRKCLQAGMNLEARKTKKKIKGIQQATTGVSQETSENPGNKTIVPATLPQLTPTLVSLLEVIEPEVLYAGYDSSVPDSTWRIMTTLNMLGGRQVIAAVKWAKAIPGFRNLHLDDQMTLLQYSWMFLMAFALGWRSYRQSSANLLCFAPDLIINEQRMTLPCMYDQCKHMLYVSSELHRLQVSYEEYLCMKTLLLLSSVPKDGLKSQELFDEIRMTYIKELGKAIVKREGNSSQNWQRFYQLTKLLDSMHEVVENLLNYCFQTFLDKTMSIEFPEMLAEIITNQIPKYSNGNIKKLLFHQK

[6] = target: T4, 5-HT1B (h) (Homo sapiens, UniProt P28222); assay: Radioligand binding 5-HT1B (h) (antagonist radioligand), [^3H]GR125743, Chem-1 RBL cells
T4 construct: expressed in transfected cells; host or cells: Chem-1 RBL cells

[7] = target: T5, AR (h) (Homo sapiens, UniProt P10275, T878A); assay: Radioligand binding AR (h) (agonist radioligand), [^3H]methyltrienolone, LNCaP cells
T5 construct: human endog; endogenous in cells; host or cells: LNCaP cells
T5 sequence (P10275 1-920 T878A): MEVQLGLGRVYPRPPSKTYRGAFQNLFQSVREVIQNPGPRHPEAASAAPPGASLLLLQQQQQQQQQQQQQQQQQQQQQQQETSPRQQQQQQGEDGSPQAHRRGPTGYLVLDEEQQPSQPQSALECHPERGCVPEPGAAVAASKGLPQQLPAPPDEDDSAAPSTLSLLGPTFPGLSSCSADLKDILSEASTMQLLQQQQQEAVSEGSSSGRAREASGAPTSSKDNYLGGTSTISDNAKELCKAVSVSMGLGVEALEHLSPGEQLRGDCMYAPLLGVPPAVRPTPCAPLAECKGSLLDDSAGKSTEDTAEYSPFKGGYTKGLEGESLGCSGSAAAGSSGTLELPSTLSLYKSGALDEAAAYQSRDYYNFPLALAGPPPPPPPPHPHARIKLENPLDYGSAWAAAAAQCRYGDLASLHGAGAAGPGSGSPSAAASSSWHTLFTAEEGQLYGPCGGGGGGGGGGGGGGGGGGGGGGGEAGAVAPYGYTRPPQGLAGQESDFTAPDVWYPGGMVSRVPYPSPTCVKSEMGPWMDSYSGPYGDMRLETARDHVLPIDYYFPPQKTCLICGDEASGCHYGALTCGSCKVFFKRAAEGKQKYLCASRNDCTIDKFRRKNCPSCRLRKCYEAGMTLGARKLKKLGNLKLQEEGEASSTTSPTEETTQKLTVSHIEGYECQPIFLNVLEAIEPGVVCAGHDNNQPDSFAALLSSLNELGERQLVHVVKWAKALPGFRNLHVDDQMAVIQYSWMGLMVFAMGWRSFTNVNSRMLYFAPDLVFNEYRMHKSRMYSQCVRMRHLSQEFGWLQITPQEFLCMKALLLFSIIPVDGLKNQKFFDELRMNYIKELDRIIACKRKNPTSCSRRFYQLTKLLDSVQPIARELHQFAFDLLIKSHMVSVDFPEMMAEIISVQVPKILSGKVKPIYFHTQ

[8] = target: T6, norepinephrine transporter(h) (Homo sapiens, UniProt P23975); assay: Radioligand binding NE transporter (h) (antagonist radioligand), [^3H]nisoxetine, CHO cells
T6 construct: expressed in transfected cells; host or cells: CHO cells
Description: as §1, §2

Sequence of 5-HT2B (P41595 whole entry): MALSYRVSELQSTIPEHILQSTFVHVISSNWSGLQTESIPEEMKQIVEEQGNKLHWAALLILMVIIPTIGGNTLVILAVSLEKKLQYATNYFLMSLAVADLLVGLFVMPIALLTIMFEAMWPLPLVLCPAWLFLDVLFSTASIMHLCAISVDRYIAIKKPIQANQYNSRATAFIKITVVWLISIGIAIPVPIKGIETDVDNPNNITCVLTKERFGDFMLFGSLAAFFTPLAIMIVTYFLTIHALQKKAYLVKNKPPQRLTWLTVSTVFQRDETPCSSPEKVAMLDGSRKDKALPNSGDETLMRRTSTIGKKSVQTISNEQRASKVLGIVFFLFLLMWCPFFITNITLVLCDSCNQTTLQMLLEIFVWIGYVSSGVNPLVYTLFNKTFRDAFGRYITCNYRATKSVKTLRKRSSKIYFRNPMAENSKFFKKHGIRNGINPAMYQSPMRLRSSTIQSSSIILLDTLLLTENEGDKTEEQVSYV
T4 sequence (P28222 whole entry): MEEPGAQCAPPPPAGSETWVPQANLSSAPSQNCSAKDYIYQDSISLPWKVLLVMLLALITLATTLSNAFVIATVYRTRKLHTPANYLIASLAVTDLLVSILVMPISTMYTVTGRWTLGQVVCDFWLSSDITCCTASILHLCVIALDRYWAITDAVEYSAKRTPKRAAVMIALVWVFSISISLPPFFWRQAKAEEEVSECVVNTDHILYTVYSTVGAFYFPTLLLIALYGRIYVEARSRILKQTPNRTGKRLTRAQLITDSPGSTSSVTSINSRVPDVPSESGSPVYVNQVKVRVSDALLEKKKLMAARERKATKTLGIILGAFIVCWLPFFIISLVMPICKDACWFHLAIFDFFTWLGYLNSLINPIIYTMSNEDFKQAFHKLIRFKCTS
T6 sequence (P23975 whole entry): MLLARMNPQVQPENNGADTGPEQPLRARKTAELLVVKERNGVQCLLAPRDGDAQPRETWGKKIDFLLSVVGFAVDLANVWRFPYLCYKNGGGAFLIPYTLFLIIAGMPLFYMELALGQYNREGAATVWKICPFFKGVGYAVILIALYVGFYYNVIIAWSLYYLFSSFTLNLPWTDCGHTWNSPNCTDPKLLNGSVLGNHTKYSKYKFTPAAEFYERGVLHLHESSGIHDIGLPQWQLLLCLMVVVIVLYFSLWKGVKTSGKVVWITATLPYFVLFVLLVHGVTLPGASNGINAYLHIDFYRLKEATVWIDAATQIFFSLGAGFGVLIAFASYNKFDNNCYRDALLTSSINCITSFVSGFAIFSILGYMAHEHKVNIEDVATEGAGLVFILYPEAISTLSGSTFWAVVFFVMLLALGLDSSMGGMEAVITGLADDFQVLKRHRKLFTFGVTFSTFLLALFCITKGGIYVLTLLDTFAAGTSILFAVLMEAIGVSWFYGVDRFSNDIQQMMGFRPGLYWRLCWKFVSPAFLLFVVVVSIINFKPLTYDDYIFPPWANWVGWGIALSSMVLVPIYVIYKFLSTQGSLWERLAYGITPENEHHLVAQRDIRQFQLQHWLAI
T1 sequence (P20309 whole entry): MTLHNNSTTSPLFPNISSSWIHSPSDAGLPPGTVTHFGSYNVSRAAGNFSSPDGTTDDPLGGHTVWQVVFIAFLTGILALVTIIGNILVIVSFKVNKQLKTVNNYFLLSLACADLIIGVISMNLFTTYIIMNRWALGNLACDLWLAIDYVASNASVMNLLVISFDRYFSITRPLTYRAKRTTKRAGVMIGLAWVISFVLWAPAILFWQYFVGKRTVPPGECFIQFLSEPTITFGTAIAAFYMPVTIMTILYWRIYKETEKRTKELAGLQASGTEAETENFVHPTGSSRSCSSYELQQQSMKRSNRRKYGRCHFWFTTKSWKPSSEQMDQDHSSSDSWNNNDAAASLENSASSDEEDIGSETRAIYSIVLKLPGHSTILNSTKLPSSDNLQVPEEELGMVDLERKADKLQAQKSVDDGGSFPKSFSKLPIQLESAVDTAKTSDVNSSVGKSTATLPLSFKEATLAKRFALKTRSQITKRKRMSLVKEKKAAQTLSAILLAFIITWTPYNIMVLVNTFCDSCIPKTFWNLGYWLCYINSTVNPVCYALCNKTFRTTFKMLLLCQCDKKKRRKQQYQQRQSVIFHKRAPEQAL

| Structure (SMILES) | Emax ([1]; calcium flux, 5-HT2B) | Potency (EC50) ([1]; calcium flux, 5-HT2B) | 5-HT2B receptor activation ([1]; calcium flux) | HTR (head twitch response), in words [2] | Mean Percent Inhibition of Control Specific Binding [3] | Mean Percent Inhibition of Control Specific Binding [4] | Mean Percent Inhibition of Control Specific Binding [5] | Mean Percent Inhibition of Control Specific Binding [6] | Mean Percent Inhibition of Control Specific Binding [7] | Mean Percent Inhibition of Control Specific Binding [8] | EC50 [1] | ED50 based on HTR counts ([2]; HTR counts summed over a 30-60 min interval) |
| --- | --- | --- | --- | --- | --- | --- | --- | --- | --- | --- | --- | --- |
| COCc1cc(CCN)c(O)cc1CC(C)C [2CiBu-2OH-5MM, 2-(2-aminoethyl)-5-isobutyl-4-(methoxymethyl)phenol] | 2.64% | Unstable | unexpectedly reduced 5-HT2B receptor activation | did not produce meaningful HTR across the tested dose range | 10.6% | −9.0% | −3.1% | 12.6% | −9.9% | 17.4% |  |  |
| COCCc1cc(CCN)c(OC)cc1Br [Compound 2CB-5ME, reference compound] |  |  |  | did not produce statistically significant changes in HTR | 47.9% | −3.5% | −0.5% | 91.4% | −7.7% | 11.4% |  |  |
| COCc1cc(CCN)c(OC)cc1Br [Compound 2CB-5MM, 2-(4-bromo-2-methoxy-5-(methoxymethyl)phenyl)ethan-1-amine] | 94% |  |  | did not elicit a significant HTR at any tested dose | 29.2% | −6.5% | −7.2% | 74.2% | −9.2% | 0.2% | 23.4 nM |  |
| COCc1cc(CCN)c(OC)cc1CC(C)C [Compound 2CiBu-5MM, 2-[4-isobutyl-2-methoxy-5-(methoxymethyl)phenyl]ethanamine] | 45.7% |  | unexpectedly reduced 5-HT2B receptor activation | subtle suppression of HTR during the first 15 min followed by a rebound in HTR counts during the last 30 min segment; also recorded: HTR counts remained near baseline throughout the observation period; also recorded: overall neutral effect compared to vehicle HTR occurrences | 31.8% | −1.5% | −3.9% | 57.3% | 3.0% | −5.4% | 497 nM | 5.926 mpk |
